Laboratory results from patent US12005064B2, “Pharmaceutical composition comprising non-ionic surfactants” (priority 2014, dated 2024).

Tests used:
[1] = Solubility in water; type: physicochemical; conditions: across the whole pH range
[2] = Solubility in excipients; type: physicochemical; conditions: diverse set of excipients, covering an HLB range of 1 to 20 and above

solubility in water [1]: practically insoluble in water
solubility in excipients [2]: poorly soluble
Structure (SMILES): CCc1cc2c(cc1N1CCC(N3CCOCC3)CC1)C(C)(C)c1[nH]c3cc(C#N)ccc3c1C2=O [9-ethyl-6,6-dimethyl-8-(4-morpholin-4-yl-piperidin-1-yl)-11-oxo-6,11-dihydro-5H-benzo[b]carbazole-3-carbonitrile]
